In US20020165236A1, “Compounds for the treatment of protozoal diseases” (priority 2001, published 2002):

Assays:
[1] = tested on: 3D7 chloroquine sensitive strain of Plasmodium falciparum; experiment: antiplasmodial activity against 3D7 strain; format: cell-based; conditions: read-out: in vitro antiplasmodial activity (IC50 value class)
Protocol: Antiplasmodial activity against the 3D7 chloroquine sensitive strain of Plasmodium falciparumwas determined as described elsewhere (J. Med. Chem. (2001) 44(19), 3187-3194).

[2] = tested on: multiresistant Dd2 strain of Plasmodium falciparum; experiment: antiplasmodial action, [8-3H]hypoxanthine incorporation, Dd2 strain; format: cell-based; conditions: read-out: in vitro antiplasmodial activity (IC50 value class)
Protocol: For the determination of the antiplasmodial action of the compounds, the multiresistant Dd2 strain of Plasmodium falciparum was used. The incorporation of [8-^3H]hypoxanthine into the parasitic nucleic acids was measured. The plasmodia were incubated at 0.3% parasitaemia and an erythrocyte haematocrit of 2.5% in the presence of different concentrations of the compounds in a final volume of 200-μl. The medium employed was RPMI 1640 which contained 10% of heat-treated human serum and 3 mg/l of gentamycin. in the incubations, the concentrations of the compounds varied from 0.3 to 100 μM. After 48 h, each batch was treated with 50 µl of […] (1 mCi/ml) and incubated for a further 18 h. The cells were filtered off, washed and suspended in 20 μl of scintillation fluid. The radioactive hypoxanthine absorbed by the parasites was then quantified using a scintillation counter.
The results were presented graphically and the IC50 value was determined using a fitting function. The value IC50, the ‘inhibition constant’, indicates the value in μMol/1 at which 50% inhibition occurs.

IC50 [1]	IC50 [2]	Compound
1000 to 10000 nM	1000 to 10000 nM	N=C(N)c1cccc(NC(=O)Nc2cccc(C(F)(F)F)c2)c1 [Compound 10]
1000 to 10000 nM	1000 to 10000 nM	N=C(N)c1cccc(NC(=O)Nc2ccc(S(=O)(=O)c3ccccc3)cc2)c1 [Compound 61]
1000 to 10000 nM	1000 to 10000 nM	N=C(N)c1cccc(NC(=O)Nc2cccc(S(=O)(=O)c3ccccc3)c2)c1 [Compound 62]
1000 to 10000 nM	1000 to 10000 nM	N=C(N)c1ccc(NC(=O)Nc2cc(C(F)(F)F)cc(C(F)(F)F)c2)cc1 [Compound 15]
1000 to 10000 nM	1000 to 10000 nM	N=C(N)c1cccc(NC(=O)Nc2cc(C(F)(F)F)cc(C(F)(F)F)c2)c1 [Compound 13]
1000 to 10000 nM	< 1000 nM	N=C(N)c1cccc(NC(=O)Nc2ccc(S(=O)(=O)NCc3ccc(OC(F)(F)F)cc3)cc2)c1 [Compound 34]
1000 to 10000 nM	1000 to 10000 nM	Cc1ccc(C(=O)Nc2ccc(NC(=O)Nc3cccc(C(=N)N)c3)cc2O)cc1 [Compound 67]
10000 to 100000 nM	10000 to 100000 nM	N=C(N)c1cccc(NC(=O)Nc2cccc(S(N)(=O)=O)c2)c1 [Compound 24]
< 1000 nM	< 1000 nM	N=C(N)c1cccc(NC(=O)Nc2ccc3c(c2)S(=O)(=O)C=C3)c1 [Compound 18]
1000 to 10000 nM	10000 to 100000 nM	N=C(N)c1cccc(NC(=O)Nc2cccc([N+](=O)[O-])c2)c1 [Compound 5]
	< 1000 nM	N=C(N)c1ccc(NC(=O)Nc2ccc(S(=O)(=O)NCc3c(F)ccc(F)c3F)cc2)cc1 [Compound 56]
	< 1000 nM	N=C(N)c1cccc(NC(=O)Nc2ccc(S(=O)(=O)NCc3ccccc3F)cc2)c1 [Compound 40]
	< 1000 nM	O=C(Nc1cccc(C2=NCCN2)c1)Nc1cccc(C(F)(F)F)c1 [Compound 91]
	< 1000 nM	N=C(N)c1ccc(NC(=O)Nc2ccc(S(=O)(=O)NCc3ccc(S(N)(=O)=O)cc3)cc2)cc1 [Compound 51, 4-{3-[4-(4-sulfamoylbenzylsulfamoyl)-phenyl]-ureido}-benzamidine]
	1000 to 10000 nM	N=C(N)c1cccc(NC(=O)C(=O)Nc2ccc(S(=O)(=O)NCc3ccccc3)cc2)c1 [Compound 101, N-(4-benzylsulfamoylphenyl)-N′-(3-carbamimidoyl-phenyl)-oxalamide]
	1000 to 10000 nM	N=C(N)c1cccc(NC(=O)Nc2cccc(NC(=O)c3ccc(-c4ccccc4)cc3)c2)c1 [Compound 70]
	10000 to 100000 nM	Cc1ccc(S(=O)(=O)Nc2cccc(NC(=O)Nc3cccc(C(=N)N)c3)c2)cc1 [Compound 32]
1000 to 10000 nM	< 1000 nM	N=C(N)c1ccc(NC(=O)Nc2ccc(S(=O)(=O)c3ccccc3)cc2)cc1 [Compound 64]
	< 1000 nM	N=C(NCCN1CCOCC1)c1cccc(NC(=O)Nc2ccc(S(=O)(=O)NCc3ccc(S(N)(=O)=O)cc3)cc2)c1 [Compound 90]
	< 1000 nM	N=C(N)c1ccc(NC(=O)Nc2ccc(S(=O)(=O)NCc3ccc(F)cc3)cc2)cc1 [Compound 53]
	10000 to 100000 nM	CN1C(=O)c2ccc(NC(=O)Nc3cccc(C(=N)N)c3)cc2C1=O [Compound 17]
	< 1000 nM	N=C(N)c1cccc(NC(=O)Nc2ccc(S(=O)(=O)NCc3c(F)ccc(F)c3F)cc2)c1 [Compound 47, 3-{3-[4-(2,3,6-trifluorobenzylsulfamoyl)-phenyl]-ureido}-benzamidine]
	1000 to 10000 nM	N=C(N)c1cccc(NC(=O)Nc2ccc(S(=O)(=O)NCc3cccc(OC(F)(F)F)c3)cc2)c1 [Compound 49]
	< 1000 nM	N=C(N)c1ccc(NC(=O)Nc2ccc(S(=O)(=O)NCc3c(F)cccc3F)cc2)cc1 [Compound 54]
	1000 to 10000 nM	N=C(N)c1cccc(NC(=O)Nc2ccc(C(F)(F)F)cc2)c1 [Compound 8]
